Measurements reported in patent US20240417398A1, “TETRAHYDRONAPTHYRIDINE AND RELATED ANALOGS FOR INHIBITING YAP/TAZ-TEAD” (SpringWorks Therapeutics, Inc., priority 2023, published 2024).

system: YAP/TAZ-TEAD transcription; test: Reporter gene assay for measuring the inhibition of YAP/TAZ-TEAD transcription (TEAD-responsive element luciferase reporter, Hek293T cells); assay type: cell-based; conditions: Hek293T cells transfected with TEAD-responsive element luciferase reporter, 24 hours incubation
Description: Hek293T cells were cultured in DMEM supplemented with 10% fetal bovine serum, Sodium pyruvate, Sodium bicarbonate, L-glutamine. The cells were harvested and transiently transfected with TEAD-responsive element luciferase reporter. Transfected cells were plated in 384-well plate containing pre-diluted compounds. After 24 hours incubation at 37° C./5% CO2, assay plates were cooled to room temperature and levelled to an equal volume per well, prior to the addition of 25 uL luciferase substrate SteadyLite (Perkin Elmer)/well. The plate was shaken for 10 min at 600 rpm, centrifuged for 1 min at 500 rpm and measured with an Envision reader (PerkinElmer). The amount of relative light units produced by the TEAD reporter was used to calculate the percentage of inhibition.
The percent of reporter inhibition was calculated in the presence of a positive control inhibitor (100% inhibition) versus a condition with the presence of the vehicle basal activity of the reporter (0% inhibition). The ability of a test compound to inhibit this activity was determined as: Percentage inhibition=[1-((RLU determined in the presence of vehicle−RLU determined for sample with test compound present) divided by (RLU determined in the presence of vehicle−RLU determined for sample with positive control inhibitor))]*100.
The activities of example compounds tested are depicted in Table 3. The activity ranges A, B and C refer to IC50 values in the reporter gene assay as follows: “A”: IC50<1 μM; “B”: 1 μM≤IC50 10 μM and “C”: IC50>10 μM; NT=not tested.

Compared with `CC(=O)NCC1(C)Cc2ncccc2N(c2ccc(C(F)(F)F)cc2)C1` (single isomer, unassigned) [Cpd. No. 47-En2, (R)- or (S)-N-((3-methyl-1-(4-(trifluoromethyl)phenyl)-1,2,3,4-tetrahydro-1,5-naphthyridin-3-yl)methyl)acetamide], `O=C(CC(F)(F)F)NCC1Cc2ncccc2N(c2ccc(C(F)(F)F)cc2)C1` (single isomer, unassigned) [Cpd. No. 38-En2, (R)- or (S)-3,3,3-trifluoro-N-((1-(4-(trifluoromethyl)phenyl)-1,2,3,4-tetrahydro-1,5-naphthyridin-3-yl)methyl)propanamide] is lower in IC50: greater than 10000 nM for the first, less than 1000 nM for the second. The second is the more potent here.

same assay, conditions: Homo sapiens, HEK-293T, 24 h, Hek293T cells transfected with TEAD-responsive element luciferase reporter, 24 hours incubation

`O=C(O)CC1Cc2ncccc2N(c2ccc(C(F)(F)F)cc2)C1` (centres unmarked) [Cpd. No. 13, 2-(1-(4-(trifluoromethyl)phenyl)-1,2,3,4-tetrahydro-1,5-naphthyridin-3-yl)acetic acid] and `CC(=O)NCC1Cc2ncccc2N(c2ccc(C(F)(F)F)cc2)C1` (single isomer, unassigned) [Cpd. No. 12-En1, (R)- or (S)-N-((1-(4-(trifluoromethyl)phenyl)-1,2,3,4-tetrahydro-1,5-naphthyridin-3-yl)methyl)acetamide] fall in the same range of IC50: 1000 to 10000 nM for the first, 1000 to 10000 nM for the second.

`CC(=O)NCC1Cc2nc(C3CC3)ccc2N(c2ccc(C(F)(F)F)cc2)C1` (centres unmarked) [Cpd. No. 57, N-((6-cyclopropyl-1-(4-(trifluoromethyl)phenyl)-1,2,3,4-tetrahydro-1,5-naphthyridin-3-yl)methyl)acetamide] and `CC(=O)NCC1Cc2nc(C)ccc2N(c2ccc(C(F)(F)F)cc2)C1` (single isomer, unassigned) [Cpd. No. 26-En1, (R)- or (S)-N-((6-methyl-1-(4-(trifluoromethyl)phenyl)-1,2,3,4-tetrahydro-1,5-naphthyridin-3-yl)methyl)acetamide] cannot be ordered by IC50: less than 1000 nM for the first, less than 1000 nM for the second.

`CC(=O)N(CC(=O)O)Cc1cc2c(c(-c3ccc(C(F)(F)F)cc3)c1)CNCC2` [Cpd. No. 37, N-acetyl-N-((8-(4-(trifluoromethyl)phenyl)-1,2,3,4-tetrahydroisoquinolin-6-yl)methyl)glycine] and `C=CC(=O)N(CC(=O)O)Cc1cc2c(c(-c3ccc(C(F)(F)F)cc3)c1)CNCC2` [Cpd. No. 36, N-acryloyl-N-((8-(4-(trifluoromethyl)phenyl)-1,2,3,4-tetrahydroisoquinolin-6-yl)methyl)glycine] cannot be ordered by IC50: greater than 10000 nM for the first, greater than 10000 nM for the second.

`O=C(NCC1Cc2ncccc2N(c2ccc(C(F)(F)F)cc2)C1)C1CC1` (centres unmarked) [Cpd. No. 18, N-((1-(4-(trifluoromethyl)phenyl)-1,2,3,4-tetrahydro-1,5-naphthyridin-3-yl)methyl)cyclopropanecarboxamide] and `O=C1CC[C@H](C(=O)NCC2Cc3ncccc3N(c3ccc(C(F)(F)F)cc3)C2)N1` (stereo partly drawn) [Cpd. No. 29, (2R)-5-oxo-N-((1-(4-(trifluoromethyl)phenyl)-1,2,3,4-tetrahydro-1,5-naphthyridin-3-yl)methyl)pyrrolidine-2-carboxamide] cannot be ordered by IC50: less than 1000 nM for the first, less than 1000 nM for the second.

Compared with `O=C(NCC1Cc2ncccc2N(c2ccc(C(F)(F)F)cc2)C1)c1ccccc1` (centres unmarked) [Cpd. No. 40, N-((1-(4-(trifluoromethyl)phenyl)-1,2,3,4-tetrahydro-1,5-naphthyridin-3-yl)methyl)benzamide], `Cn1cncc1C(=O)NCC1Cc2ncccc2N(c2ccc(C(F)(F)F)cc2)C1` (centres unmarked) [Cpd. No. 30, 1-methyl-N-((1-(4-(trifluoromethyl)phenyl)-1,2,3,4-tetrahydro-1,5-naphthyridin-3-yl)methyl)-1H-imidazole-5-carboxamide] is higher in IC50: 1000 to 10000 nM for the first, greater than 10000 nM for the second.

`C=CC(=O)N1CCN(C2Cc3ccccc3N(c3ccc(C(F)(F)F)cc3)C2)CC1` (centres unmarked) [Cpd. No. 41, 1-(4-(1-(4-(trifluoromethyl)phenyl)-1,2,3,4-tetrahydroquinolin-3-yl)piperazin-1-yl)prop-2-en-1-one] and `O=C(O)/C=C/C1Cc2ncccc2N(c2ccc(C(F)(F)F)cc2)C1` (centres unmarked) [Cpd. No. 20, (E)-3-(1-(4-(trifluoromethyl)phenyl)-1,2,3,4-tetrahydro-1,5-naphthyridin-3-yl)acrylic acid] cannot be ordered by IC50: less than 1000 nM for the first, less than 1000 nM for the second.

`CCC(=O)NCC1Cc2ncccc2N(c2ccc(C(F)(F)F)cc2)C1` (centres unmarked) [Cpd. No. 17, N-((1-(4-(trifluoromethyl)phenyl)-1,2,3,4-tetrahydro-1,5-naphthyridin-3-yl)methyl)propionamide] and `CNC(=O)NCC1Cc2ncccc2N(c2ccc(C(F)(F)F)cc2)C1` (centres unmarked) [Cpd. No. 43, 1-methyl-3-((1-(4-(trifluoromethyl)phenyl)-1,2,3,4-tetrahydro-1,5-naphthyridin-3-yl)methyl)urea] cannot be ordered by IC50: less than 1000 nM for the first, less than 1000 nM for the second.

First: CCC(=O)NCC1Cc2ncccc2N(c2ccc(C(F)(F)F)cc2)C1 (single isomer, unassigned) [Cpd. No. 17-En1, (R)- or (S)-N-((1-(4-(trifluoromethyl)phenyl)-1,2,3,4-tetrahydro-1,5-naphthyridin-3-yl)methyl)propionamide]
Second: CC(C)C(=O)NCC1Cc2ncccc2N(c2ccc(C(F)(F)F)cc2)C1 (centres unmarked) [Cpd. No. 39, N-((1-(4-(trifluoromethyl)phenyl)-1,2,3,4-tetrahydro-1,5-naphthyridin-3-yl)methyl)isobutyramide]
The IC50 of the first is higher: 1000 to 10000 nM for the first, less than 1000 nM for the second. The second is the more potent here.

First: CC(=O)NCC1Cc2nc(O)ccc2N(c2ccc(C(F)(F)F)cc2)C1 (centres unmarked) [Cpd. No. 23, N-((6-hydroxy-1-(4-(trifluoromethyl)phenyl)-1,2,3,4-tetrahydro-1,5-naphthyridin-3-yl)methyl)acetamide]
Second: CC(=O)NCC1Cc2nc(N)ccc2N(c2ccc(C(F)(F)F)cc2)C1 (centres unmarked) [Cpd. No. 45, N-((6-amino-1-(4-(trifluoromethyl)phenyl)-1,2,3,4-tetrahydro-1,5-naphthyridin-3-yl)methyl)acetamide]
The IC50 of the first is higher: greater than 10000 nM for the first, less than 1000 nM for the second.

`O=C(CC(F)(F)F)NCC1Cc2ncccc2N(c2ccc(C(F)(F)F)cc2)C1` (centres unmarked) [Cpd. No. 38, 3,3,3-trifluoro-N-((1-(4-(trifluoromethyl)phenyl)-1,2,3,4-tetrahydro-1,5-naphthyridin-3-yl)methyl)propanamide] and `CC(=O)NCC1Cc2nc(C(F)(F)F)ccc2N(c2ccc(C(F)(F)F)cc2)C1` (centres unmarked) [Cpd. No. 42, N-((6-(trifluoromethyl)-1-(4-(trifluoromethyl)phenyl)-1,2,3,4-tetrahydro-1,5-naphthyridin-3-yl)methyl)acetamide] cannot be ordered by IC50: less than 1000 nM for the first, less than 1000 nM for the second.

`CCC(=O)NCC1Cc2c(OCc3cc(=O)[nH]c(=O)[nH]3)cccc2N(c2ccc(C(F)(F)F)cc2)C1` (centres unmarked) [Cpd. No. 5, N-((5-((2,6-dioxo-1,2,3,6-tetrahydropyrimidin-4-yl)methoxy)-1-(4-(trifluoromethyl)phenyl)-1,2,3,4-tetrahydroquinolin-3-yl)methyl)propionamide] and `CS(=O)(=O)NCC1Cc2c(OCc3cc[nH]c(=O)c3)cccc2N(c2ccc(C(F)(F)F)cc2)C1` (centres unmarked) [Cpd. No. 9, N-((5-((2-oxo-1,2-dihydropyridin-4-yl)methoxy)-1-(4-(trifluoromethyl)phenyl)-1,2,3,4-tetrahydroquinolin-3-yl)methyl)methanesulfonamide] cannot be ordered by IC50: less than 1000 nM for the first, less than 1000 nM for the second.

Going from `CC(=O)NCC1Cc2nc(C#N)ccc2N(c2ccc(C(F)(F)F)cc2)C1` (centres unmarked) [Cpd. No. 58, N-((6-cyano-1-(4-(trifluoromethyl)phenyl)-1,2,3,4-tetrahydro-1,5-naphthyridin-3-yl)methyl)acetamide] to `COc1ccc2c(n1)CC(CNC(C)=O)CN2c1ccc(C(F)(F)F)cc1` (centres unmarked) [Cpd. No. 22, N-((6-methoxy-1-(4-(trifluoromethyl)phenyl)-1,2,3,4-tetrahydro-1,5-naphthyridin-3-yl)methyl)acetamide], the IC50 falls from greater than 10000 nM to less than 1000 nM.

`CCC(=O)NCC1Cc2c(Oc3cccnc3)cccc2N(c2ccc(C(F)(F)F)cc2)C1` (centres unmarked) [Cpd. No. 1, N-((5-(pyridin-3-yloxy)-1-(4-(trifluoromethyl)phenyl)-1,2,3,4-tetrahydroquinolin-3-yl)methyl)propionamide] and `C=CC(=O)NCC1Cc2nc(OC)ccc2N(c2ccc(C(F)(F)F)cc2)C1` (centres unmarked) [Cpd. No. 21, N-((6-methoxy-1-(4-(trifluoromethyl)phenyl)-1,2,3,4-tetrahydro-1,5-naphthyridin-3-yl)methyl)acrylamide] cannot be ordered by IC50: less than 1000 nM for the first, less than 1000 nM for the second.

Compared with `CC(=O)NCC1Cc2nc(OC(F)F)ccc2N(c2ccc(C(F)(F)F)cc2)C1` (centres unmarked) [Cpd. No. 60, N-((6-(difluoromethoxy)-1-(4-(trifluoromethyl)phenyl)-1,2,3,4-tetrahydro-1,5-naphthyridin-3-yl)methyl)acetamide], `CC(=O)NCC1Cc2nc(C(F)F)ccc2N(c2ccc(C(F)(F)F)cc2)C1` (centres unmarked) [Cpd. No. 61, N-((6-(difluoromethyl)-1-(4-(trifluoromethyl)phenyl)-1,2,3,4-tetrahydro-1,5-naphthyridin-3-yl)methyl)acetamide] is higher in IC50: less than 1000 nM for the first, 1000 to 10000 nM for the second.

`FC(F)(F)c1ccc(N2CC(CNC3COC3)Cc3ncccc32)cc1` (centres unmarked) [Cpd. No. 25, N-((1-(4-(trifluoromethyl)phenyl)-1,2,3,4-tetrahydro-1,5-naphthyridin-3-yl)methyl)oxetan-3-amine] and `O=C(O)COC1Cc2ncccc2N(c2ccc(C(F)(F)F)cc2)C1` (centres unmarked) [Cpd. No. 24, 2-((1-(4-(trifluoromethyl)phenyl)-1,2,3,4-tetrahydro-1,5-naphthyridin-3-yl)oxy)acetic acid] cannot be ordered by IC50: greater than 10000 nM for the first, greater than 10000 nM for the second.
